From US9062041B2 (Bayer Intellectual Property GmbH, priority 2011, dated 2015)

How the values were obtained:
Assay type in all cases: cell-based
[1] = target: EP4 subtype of the human PGE2 receptor (Homo sapiens, UniProt P35408); assay: cAMP antagonism test on the human EP4 receptor (HTRF cAMP detection); settings: selectivity towards hEP4, IC50 measured by cAMP antagonism test
In short: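 Competitive HTRF cAMP read-out (cAMP-d2 vs Eu-cryptate anti-cAMP antibody, 665/620 nm ratio) on lysed human EP4 cells. Compound (0.8 nM–16.5 μM) applied 20 min at RT before 60 min PGE2 challenge (3× solution 0.3 nM, IBMX present); 20 min lysis precedes reading.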

[2] = target: EP2 subtype of the human PGE2 receptor (Homo sapiens, UniProt P43116); assay: cAMP antagonism test on the human EP2 receptor (HTRF cAMP detection); settings: hEP2 receptor, read-out: Antagonism hEP2 IC50
In short: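 Read-out is a competitive HTRF for cAMP: lysate cAMP displaces cAMP-d2 from Eu cryptate-labelled antibody, and antagonism raises the 665/620 nm ratio. Compound (0.8 nM–16.5 μM) added to EP2 cells 20 min at RT before 60 min PGE2 challenge (3× stock 1.5 nM) with IBMX, followed by 20 min lysis.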

human PGD receptor = target: T1, human PGD receptor (Homo sapiens, UniProt Q13258); assay: cAMP antagonism test on the human prostaglandin D receptor (HTRF cAMP detection); settings: selectivity towards hDP, IC50 measured by cAMP antagonism test
T1 sequence (Q13258 1-359): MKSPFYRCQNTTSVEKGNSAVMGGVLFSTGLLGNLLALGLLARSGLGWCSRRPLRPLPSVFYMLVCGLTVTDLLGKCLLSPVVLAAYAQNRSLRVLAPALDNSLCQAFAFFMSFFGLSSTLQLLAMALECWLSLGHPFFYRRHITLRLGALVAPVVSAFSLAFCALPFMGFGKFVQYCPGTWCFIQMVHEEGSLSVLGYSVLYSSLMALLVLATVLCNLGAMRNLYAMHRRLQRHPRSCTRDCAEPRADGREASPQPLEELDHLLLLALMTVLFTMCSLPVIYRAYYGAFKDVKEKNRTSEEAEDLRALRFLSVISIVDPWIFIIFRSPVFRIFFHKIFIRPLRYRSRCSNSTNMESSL
In short: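 HTRF competition read-out (665/620 nm ratio ×10000), where higher FRET means less cAMP, i.e. antagonism. Compounds (0.8 nM–16.5 μM) were preincubated 20 min at RT with cells and cAMP-d2, PGD2 (3× solution, 6 nM) in IBMX-containing PBS added for 30 min at RT, then cells lysed 20 min.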

Chain of EP2 subtype of the human PGE2 receptor (P43116 whole entry): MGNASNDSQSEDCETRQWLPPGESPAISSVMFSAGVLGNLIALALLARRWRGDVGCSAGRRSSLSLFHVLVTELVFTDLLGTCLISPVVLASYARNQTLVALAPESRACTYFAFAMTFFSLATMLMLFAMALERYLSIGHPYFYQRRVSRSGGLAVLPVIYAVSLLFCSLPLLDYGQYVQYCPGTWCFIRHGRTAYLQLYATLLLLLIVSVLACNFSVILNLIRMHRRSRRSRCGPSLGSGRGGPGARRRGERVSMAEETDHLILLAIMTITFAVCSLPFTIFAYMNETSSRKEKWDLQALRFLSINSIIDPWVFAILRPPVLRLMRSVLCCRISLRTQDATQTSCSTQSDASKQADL
Chain of EP4 subtype of the human PGE2 receptor (P35408 whole entry): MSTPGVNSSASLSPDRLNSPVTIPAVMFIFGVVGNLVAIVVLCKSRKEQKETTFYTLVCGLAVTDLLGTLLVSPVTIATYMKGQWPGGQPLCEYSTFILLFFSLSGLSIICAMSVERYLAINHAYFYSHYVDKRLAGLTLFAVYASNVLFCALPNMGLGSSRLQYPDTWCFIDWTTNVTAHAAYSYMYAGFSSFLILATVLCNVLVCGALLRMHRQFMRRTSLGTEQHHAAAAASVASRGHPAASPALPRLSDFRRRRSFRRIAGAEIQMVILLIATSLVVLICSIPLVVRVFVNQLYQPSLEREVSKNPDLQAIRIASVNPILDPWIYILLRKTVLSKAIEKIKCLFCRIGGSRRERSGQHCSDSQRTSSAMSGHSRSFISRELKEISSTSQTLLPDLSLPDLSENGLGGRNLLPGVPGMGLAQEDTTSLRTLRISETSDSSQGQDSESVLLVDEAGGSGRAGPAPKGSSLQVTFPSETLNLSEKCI

Selectivity hEP2/hEP4 [1]	IC50 [2] [nM]	Selectivity hEP2/hDP (human PGD receptor)	Compound
xxx (xxx > 100)	9.75	xxx (xxx > 100)	Cc1c(C(=O)NCC2CCCCO2)ccc2nn(CC3CCN(C(=O)c4ccc(Oc5ccc(C(F)(F)F)cc5)cc4)CC3)cc12 (single isomer, unassigned) [Example 417, (S or R)-4-methyl-N-(3,4,5,6-tetrahydro-2H-pyran-2-ylmethyl)-2-[(1-{4-[4-(trifluoromethyl)phenoxy]benzoyl}piperidin-4-yl)methyl]-2H-indazol-5-carboxamide]
xxx (xxx > 100)	15.8	xxx (xxx > 100)	Cc1c(C(=O)NCC2COCCO2)ccc2nn(CC3CCN(C(=O)c4ccc(Oc5ccc(C(F)(F)F)cc5)cc4)CC3)cc12 (single isomer, unassigned) [Example 418, (R or S)—N-(1,4-dioxan-2-ylmethyl)-4-methyl-2-[(1-{4-[4-(trifluoromethyl)-phenoxy]benzoyl}piperidin-4-yl)methyl]-2H-indazol-5-carboxamide]
xxx (xxx > 100)	10.9	xxx (xxx > 100)	Cc1c(C(=O)NCC2COCCO2)ccc2nn(CC3CCN(C(=O)c4ccc(Oc5ccc(C(F)(F)F)cc5)cc4)CC3)cc12 (single isomer, unassigned) [Example 419, (R or S)—N-(1,4-dioxan-2-ylmethyl)-4-methyl-2-[(1-{4-[4-(trifluoromethyl)-phenoxy]benzoyl}piperidin-4-yl)methyl]-2H-indazol-5-carboxamide]
xxx (xxx > 100)	3.67	xxx (xxx > 100)	COCCNC(=O)c1ccc2nn(CC3CCN(C(=O)c4ccc(Oc5ccc(Cl)cc5)cc4)CC3)cc2c1C [Example 14, 2-({1-[4-(4-chloro-phenoxy)benzoyl]-piperidin-4-yl}-methyl)-N-(2-methoxyethyl)-4-methyl-2H-indazol-5-carboxamide]
xxx (xxx > 100)	4.17	xxx (xxx > 100)	COCCNC(=O)c1ccc2nn(CC3CCN(C(=O)c4ccc(Oc5ccc(C)cc5)cc4)CC3)cc2c1C [Example 15, N-(2-methoxyethyl)-4-methyl-2-({1-[4-(4-methylphenoxy)-benzoyl]piperidin-4-yl}methyl)-2H-indazol-5-carboxamide]
xxx (xxx > 100)	5.85	xxx (xxx > 100)	COCCNC(=O)c1ccc2nn(CC3CCN(C(=O)c4ccc(Oc5ccc(C(C)(C)C)cc5)cc4)CC3)cc2c1C [Example 16, 2-({1-[4-(4-tert-butylphenoxy)-benzoyl]piperidin-4-yl}methyl)-N-(2-methoxyethyl)-4-methyl-2H-indazol-5-carboxamide]
xxx (xxx > 100)	7.66	xxx (xxx > 100)	COCCNC(=O)c1ccc2nn(CC3CCN(C(=O)c4ccc(Oc5ccc(OC)cc5)cc4)CC3)cc2c1C [Example 18, N-(2-methoxyethyl)-2-({1-[4-(4-methoxy-phenoxy)benzoyl]-piperidin-4-yl}-methyl)-4-methyl-2H-indazol-5-carboxamide]
xxx (xxx > 100)	8.57	xxx (xxx > 100)	COCCNC(=O)c1ccc2nn(CC3CCN(C(=O)c4ccc(Oc5ccccc5)cc4)CC3)cc2c1C [Example 19, N-(2-methoxyethyl)-4-methyl-2-{[1-(4-phenoxybenzoyl)-piperidin-4-yl]-methyl}-2H-indazol-5-carboxamide]
xxx (xxx > 100)	7.33	xxx (xxx > 100)	COCCNC(=O)c1ccc2nn(CC3CCN(C(=O)c4ccc(C5CC5)cc4)CC3)cc2c1C [Example 20, 2-{[1-(4-cyclopropyl-benzoyl)piperidin-4-yl]methyl}-N-(2-methoxyethyl)-4-methyl-2H-indazol-5-carboxamide]

Second part, the compound before the results:

Compound	Selectivity hEP2/hEP4 [1]	IC50 [2] [nM]	Selectivity hEP2/hDP (human PGD receptor)
COCCNC(=O)c1ccc2nn(CC3CCN(C(=O)c4ccc(C#N)cc4F)CC3)cc2c1C [Example 1, 2-{[1-(4-cyano-2-fluorobenzoyl)piperidin-4-yl]methyl}-N-(2-methoxyethyl)-4-methyl-2H-indazol-5-carboxamide]	xxx (xxx > 100)	103	xxx (xxx > 100)
COCCNC(=O)c1ccc2nn(CC3CCN(C(=O)c4ccc(OC(C)(C)C)cc4)CC3)cc2c1C [Example 2, 2-({1-[4-tert-(butoxy)benzoyl]piperidin-4-yl}methyl)-N-(2-methoxyethyl)-4-methyl-2H-indazol-5-carboxamide]	xxx (xxx > 100)	21.7	xxx (xxx > 100)
COCCNC(=O)c1ccc2nn(CC3CCN(C(=O)c4ccc(Oc5ccc(F)cc5)cc4)CC3)cc2c1C [Example 3, 2-({1-[4-(4-fluorophenoxy)benzoyl]piperidin-4-yl}methyl)-N-(2-methoxyethyl)-4-methyl-2H-indazol-5-carboxamide]	xxx (xxx > 100)	4.91	xxx (xxx > 100)
COCCNC(=O)c1ccc2nn(CC3CCN(C(=O)c4ccc(N5CCOCC5)cc4)CC3)cc2c1C [Example 4, N-(2-methoxyethyl)-4-methyl-2-{[1-(4-morpholinobenzoyl)piperidin-4-yl]methyl}-2H-indazol-5-carboxamide]	xxx (xxx > 100)	68.1	xxx (xxx > 100)
COCCNC(=O)c1ccc2nn(CC3CCN(C(=O)c4ccc(S(C)(=O)=O)cc4F)CC3)cc2c1C [Example 6, 2-{[1-(2-fluoro-4-mesylbenzoyl)piperidin-4-yl]methyl}-N-(2-methoxyethyl)-4-methyl-2H-indazol-5-carboxamide]	xx (xx: 10-100)	313	xx (xx: 10-100)
COCCNC(=O)c1ccc2nn(CC3CCN(C(=O)c4ccc(OC)cc4F)CC3)cc2c1C [Example 7, 2-{[1-(2-fluoro-4-methoxybenzoyl)piperidin-4-yl]methyl}-N-(2-methoxyethyl)-4-methyl-2H-indazol-5-carboxamide]	xxx (xxx > 100)	25.8	xxx (xxx > 100)
COCCNC(=O)c1ccc2nn(CC3CCN(C(=O)c4ccc(Br)cc4F)CC3)cc2c1C [Example 8, 2-{[1-(4-bromo-2-fluorobenzoyl)piperidin-4-yl]methyl}-N-(2-methoxyethyl)-4-methyl-2H-indazol-5-carboxamide]	xxx (xxx > 100)	9.37	xxx (xxx > 100)
COCCNC(=O)c1ccc2nn(CC3CCN(C(=O)c4ccc(C)cc4F)CC3)cc2c1C [Example 9, 2-{[1-(2-fluoro-4-methylbenzoyl)piperidin-4-yl]methyl}-N-(2-methoxyethyl)-4-methyl-2H-indazol-5-carboxamide]	xxx (xxx > 100)	17.2	xxx (xxx > 100)
COCCNC(=O)c1ccc2nn(CC3CCN(C(=O)c4ccc(C(F)(F)F)cc4F)CC3)cc2c1C [Example 10, 2-({1-[2-fluoro-4-(trifluoromethyl)benzoyl]piperidin-4-yl}methyl)-N-(2-methoxy-ethyl)-4-methyl-2H-indazol-5-carboxamide]	xxx (xxx > 100)	8.67	xxx (xxx > 100)
COCCNC(=O)c1ccc2nn(CC3CCN(C(=O)c4ccc(S(F)(F)(F)(F)F)cc4)CC3)cc2c1C [Example 11, N-(2-methoxyethyl)-4-methyl-2-({1-[4-(pentafluoro-λ^6-sulphanyl)benzoyl]piperidin-4-yl}methyl)-2H-indazol-5-carboxamide]	xxx (xxx > 100)	8.14	xxx (xxx > 100)
COCCNC(=O)c1ccc2nn(CC3CCN(C(=O)c4ccc(C)cc4)CC3)cc2c1C [Example 12, N-(2-methoxyethyl)-4-methyl-2-{[1-(4-methylbenzoyl)-piperidin-4-yl]-methyl)-2H-indazol-5-carboxamide]	xxx (xxx > 100)	20.3	xxx (xxx > 100)
COCCNC(=O)c1ccc2nn(CC3CCN(C(=O)c4cc(-c5ccccc5)no4)CC3)cc2c1C [Example 13, N-(2-methoxyethyl)-4-methyl-2-({1-[(3-phenylisoxazol-5-yl)carbonyl]piperidin-4-yl}methyl)-2H-indazol-5-carboxamide]	xxx (xxx > 100)	35.9	xxx (xxx > 100)
